“And” between values parts separate entries of the source, which are not always exact repeats. Equal entries are not always repeated. Inconclusive results and toxic doses are left out. No stated cut-off is given here; in the data, active means T/C of 150% or more; inactive means T/C below 125%.
System: L1210 leukemia ip in BDF1 mice, survival T/C
Assay: NCI In Vivo Anticancer Drug Screen. Data for tumor model L1210 Leukemia (intraperitoneal) in B6D2F1 (BDF1) mice
Details: endpoint: mean survival time, higher = longer survival
Method in brief: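 Survival endpoint. Drug-treated group vs vehicle group, expressed as T divided by C. Tumor passaged by transplantation.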

[1] = dose: 100.0 mg/kg/injection, schedule: Q01DX009 (ip), vehicle: Klucel (hydroxypropylcellulose) (HPC)
[2] = dose: 100.0 mg/kg/injection, schedule: Q04DX002 (ip), vehicle: Klucel (hydroxypropylcellulose) (HPC)
[3] = dose: 200.0 mg/kg/injection, schedule: Q04DX002 (ip), vehicle: Klucel (hydroxypropylcellulose) (HPC)
[4] = dose: 100.0 mg/kg/injection, schedule: Q01DX001 (ip), vehicle: other
[5] = dose: 200.0 mg/kg/injection, schedule: Q01DX001 (ip), vehicle: other
[6] = dose: 400.0 mg/kg/injection, schedule: Q01DX001 (ip), vehicle: other
[7] = dose: 100.0 mg/kg/injection, schedule: Q01DX001 (ip), vehicle: carboxymethylcellulose (CMC)
[8] = dose: 200.0 mg/kg/injection, schedule: Q01DX001 (ip), vehicle: carboxymethylcellulose (CMC)
[9] = dose: 400.0 mg/kg/injection, schedule: Q01DX001 (ip), vehicle: carboxymethylcellulose (CMC)
[10] = dose: 100.0 mg/kg/injection, schedule: Q04DX003 (ip), vehicle: Klucel (hydroxypropylcellulose) (HPC)
[11] = dose: 200.0 mg/kg/injection, schedule: Q04DX003 (ip), vehicle: Klucel (hydroxypropylcellulose) (HPC)
[12] = dose: 400.0 mg/kg/injection, schedule: Q04DX003 (ip), vehicle: Klucel (hydroxypropylcellulose) (HPC)
[13] = dose: 100.0 mg/kg/injection, schedule: Q04DX003 (ip), vehicle: saline with Tween-80
[14] = dose: 200.0 mg/kg/injection, schedule: Q04DX003 (ip), vehicle: saline with Tween-80
[15] = dose: 400.0 mg/kg/injection, schedule: Q04DX003 (ip), vehicle: saline with Tween-80
[16] = dose: 100.0 mg/kg/injection, schedule: Q01DX009 (ip), vehicle: water
[17] = dose: 100.0 mg/kg/injection, schedule: Q04DX003 (ip), vehicle: water
[18] = dose: 200.0 mg/kg/injection, schedule: Q01DX009 (ip), vehicle: water
[19] = dose: 200.0 mg/kg/injection, schedule: Q04DX003 (ip), vehicle: water
[20] = dose: 400.0 mg/kg/injection, schedule: Q01DX009 (ip), vehicle: water
[21] = dose: 400.0 mg/kg/injection, schedule: Q04DX003 (ip), vehicle: water
[22] = dose: 100.0 mg/kg/injection, schedule: Q01DX001 (ip), vehicle: saline
[23] = dose: 200.0 mg/kg/injection, schedule: Q01DX001 (ip), vehicle: saline

Measured: T/C

COc1cccc2cc([N+](=O)[O-])oc12
inactive: dose: 25.0 mg/kg/injection, schedule: Q01DX009 (ip), vehicle: Klucel (hydroxypropylcellulose) (HPC) 98 % of control | dose: 50.0 mg/kg/injection, schedule: Q01DX009 (ip), vehicle: Klucel (hydroxypropylcellulose) (HPC) 93 % of control | dose: 50.0 mg/kg/injection, schedule: Q04DX002 (ip), vehicle: Klucel (hydroxypropylcellulose) (HPC) 105 % of control | [1] 101 % of control | [2] 94 % of control | [3] 101 % of control

Cc1cccc(NC(=O)Cc2ccccc2)c1C
inactive: dose: 100.0 mg/kg/injection, schedule: Q04DX002 (ip), vehicle: saline 99 % of control | dose: 200.0 mg/kg/injection, schedule: Q04DX002 (ip), vehicle: saline 105 % of control | dose: 400.0 mg/kg/injection, schedule: Q04DX002 (ip), vehicle: saline 101 % of control

OCn1c2ccccc2c2ccccc21
inactive: [4] 98 % of control | [2] 113 % of control | [5] 92 % of control | [3] 94 % of control | [6] 98 % of control | dose: 400.0 mg/kg/injection, schedule: Q04DX002 (ip), vehicle: Klucel (hydroxypropylcellulose) (HPC) 113 % of control

COc1ccccc1/C=C(/C)[N+](=O)[O-]
inactive: [7] 97 % of control | [8] 97 % of control | [9] 100 % of control

O=C(O)CCCCc1ccc(CCCCC(=O)O)cc1
inactive: dose: 50.0 mg/kg/injection, schedule: Q01DX009 (ip), vehicle: saline with Tween-80 96 % of control | dose: 100.0 mg/kg/injection, schedule: Q01DX009 (ip), vehicle: saline with Tween-80 106 % of control | [10] 97 % of control | [11] 104 % of control

COc1ccc(-c2nc3ccccc3s2)cc1OC
inactive: [10] 95 % of control and 105 % of control | [11] 98 % of control and 102 % of control | [12] 98 % of control and 105 % of control

CC(=O)OCc1ccc(Cl)cc1Cl
inactive: [13] 97 % of control | [14] 97 % of control | [15] 101 % of control

O=C(COc1ccc(Cl)cc1)Nc1ccc[n+](Cc2ccc(S(=O)(=O)F)cc2)c1
inactive: [1] 105 % of control | dose: 200.0 mg/kg/injection, schedule: Q01DX009 (ip), vehicle: Klucel (hydroxypropylcellulose) (HPC) 101 % of control

CN(CC(=O)C(C(N)=O)c1ccccc1)c1ccccc1 (centres undefined)
inactive: dose: 50.0 mg/kg/injection, schedule: Q01DX001 (ip), vehicle: carboxymethylcellulose (CMC) 96 % of control | [7] 93 % of control | [8] 93 % of control | [9] 102 % of control

O=[N+]([O-])c1cccn2ncnc12
inactive: dose: 5.0 mg/kg/injection, schedule: Q01DX001 (ip), vehicle: acetone 104 % of control | dose: 10.0 mg/kg/injection, schedule: Q01DX001 (ip), vehicle: acetone 106 % of control | dose: 20.0 mg/kg/injection, schedule: Q01DX001 (ip), vehicle: acetone 96 % of control | dose: 40.0 mg/kg/injection, schedule: Q01DX001 (ip), vehicle: acetone 96 % of control | dose: 80.0 mg/kg/injection, schedule: Q01DX001 (ip), vehicle: acetone 107 % of control

COc1ccccc1-n1c(O)c(N=Nc2ccccc2)c(=O)n(-c2ccc(Br)cc2)c1=S
inactive: [13] 106 % of control | [14] 100 % of control | [15] 94 % of control

CC(=O)Oc1ccc2c(c1)C(=O)C(Br)C1C2CCC2(C)C(OC(C)=O)CCC12 (centres undefined)
inactive: dose: 30.0 mg/kg/injection, schedule: Q01DX015 (sc), vehicle: steriod suspending solution 96 % of control | dose: 60.0 mg/kg/injection, schedule: Q01DX015 (sc), vehicle: steriod suspending solution 97 % of control | dose: 100.0 mg/kg/injection, schedule: Q01DX001 (sc), vehicle: steriod suspending solution 116 % of control | dose: 120.0 mg/kg/injection, schedule: Q01DX015 (sc), vehicle: steriod suspending solution 97 % of control | dose: 200.0 mg/kg/injection, schedule: Q01DX001 (sc), vehicle: steriod suspending solution 104 % of control | dose: 240.0 mg/kg/injection, schedule: Q01DX015 (sc), vehicle: steriod suspending solution 100 % of control | dose: 400.0 mg/kg/injection, schedule: Q01DX001 (sc), vehicle: steriod suspending solution 96 % of control

O=C(O)CCC(=O)NCCN(CCNC(=O)CCC(=O)O)C(=O)CCC(=O)O
inactive: [4] 105 % of control | [16] 100 % of control | [17] 105 % of control | [5] 100 % of control | [18] 97 % of control | [19] 98 % of control | [6] 98 % of control | [20] 97 % of control | [21] 102 % of control

CN(C)[C@@H]1C(=O)C(C(=O)NCNc2cccc(C(=O)O)c2C(=O)O)=C(O)[C@@]2(O)C(=O)C3=C(O)c4c(O)cccc4[C@@](C)(O)[C@H]3C[C@@H]12
inactive: dose: 100.0 mg/kg/injection, schedule: Q01DX Z (ip), vehicle: saline 110 % of control | dose: 150.0 mg/kg/injection, schedule: Q01DX Z (ip), vehicle: saline 105 % of control | dose: 225.0 mg/kg/injection, schedule: Q01DX Z (ip), vehicle: saline 104 % of control | dose: 340.0 mg/kg/injection, schedule: Q01DX Z (ip), vehicle: saline 103 % of control

COC(=O)C(N)C(C)C (centres undefined)
inactive: dose: 25.0 mg/kg/injection, schedule: Q01DX009 (ip), vehicle: water 100 % of control | dose: 25.0 mg/kg/injection, schedule: Q04DX003 (ip), vehicle: water 106 % of control | dose: 50.0 mg/kg/injection, schedule: Q01DX009 (ip), vehicle: water 102 % of control | dose: 50.0 mg/kg/injection, schedule: Q04DX003 (ip), vehicle: water 104 % of control | [16] 102 % of control | [17] 114 % of control | [18] 103 % of control | [19] 101 % of control | [20] 100 % of control | [21] 104 % of control

CC1(C)NCC(=O)N1C(Cc1ccccc1)C(=O)O (centres undefined)
inactive: [22] 100 % of control | [23] 97 % of control | dose: 400.0 mg/kg/injection, schedule: Q01DX001 (ip), vehicle: saline 100 % of control

Clc1nnc2c3ccccc3ccn12
inactive: [22] 96 % of control | [23] 98 % of control

C=C(CCCCC)C(=O)/C=C/c1ccc(Cl)c(Cl)c1
inactive: dose: 12.5 mg/kg/injection, schedule: Q04DX002 (ip), vehicle: DMSO 101 % of control | dose: 25.0 mg/kg/injection, schedule: Q04DX002 (ip), vehicle: DMSO 114 % of control | dose: 50.0 mg/kg/injection, schedule: Q04DX002 (ip), vehicle: DMSO 104 % of control

CC1(C)CCc2c(cc(OCc3ccccc3)c(-c3c(OCc4ccccc4)cc4c(c3O)CCC(C)(C)O4)c2O)O1
inactive: [10] 94 % of control | [11] 93 % of control | [12] 94 % of control

Nn1cnnc1
inactive: dose: 25.0 mg/kg/injection, schedule: Q01DX009 (ip), vehicle: saline 93 % of control | dose: 50.0 mg/kg/injection, schedule: Q01DX009 (ip), vehicle: saline 103 % of control | dose: 100.0 mg/kg/injection, schedule: Q01DX009 (ip), vehicle: saline 86 % of control and 88 % of control | dose: 100.0 mg/kg/injection, schedule: Q04DX003 (ip), vehicle: saline 104 % of control | dose: 200.0 mg/kg/injection, schedule: Q04DX003 (ip), vehicle: saline 96 % of control | dose: 400.0 mg/kg/injection, schedule: Q04DX003 (ip), vehicle: saline 102 % of control
